# PMC6974970 (Annals of Clinical Microbiology and Antimicrobials, 2020)
# Values joined by “and” are separate entries in the source; they are usually repeats but may differ in a detail not shown here. Equal values may be shown once. “Also recorded” adds a separate entry of the source. Read-outs that look alike come from different tables or passages of the source.
# Experiment: Pharmacokinetic monitoring of plasma LPV and RTV (HPLC/MS–MS) in TB/HIV co-infected patients on LPV/RTV plus rifabutin
# Format: in vivo, human
# Conditions: for concentration: read-out: C0 (plasma drug concentration before the morning dose); for Tmax, individual patients: unit from Table 2; for AUC(0-t): read-out: AUC0–12h; for concentration at 12 h: read-out: C12 (plasma drug concentration 12 h post-dose); for C1, individual patients: individual plasma concentration at 1 h; for C2, individual patients: individual plasma concentration at 2 h; for C3, individual patients: individual plasma concentration at 3 h; for C4, individual patients: individual plasma concentration at 4 h; for C6, individual patients: individual plasma concentration at 6 h; for C8, individual patients: individual plasma concentration at 8 h; for C12, individual patients: individual plasma concentration at 12 h; for C0, individual patients: individual plasma concentration before dose, per patient
# Method: This was a pharmacokinetic study based on the use of LPV and RTV in HIV and tuberculosis co-infected adults. They were being treated with rifabutin 150 mg thrice weekly or rifabutin 300 mg thrice weekly.
# The patients were participating in the RIFLOPI study registered on PACTR201310000629390. They were recruited from the Bogodogo and Kossodo district hospitals in Ouagadougou from May 2013 to December 2015. Study inclusion criteria were that the patients were between 18 and 60 years of age, HIV-1 infected with pulmonary tuberculosis confirmed or suspected. […] The 2 weeks minimum delay comes from the time frame of building up full induction effect. The participating patients were divided into two groups. The first group (RBT 150 mg thrice weekly) consisted of nine patients on antiretroviral and anti-tuberculosis treatment including LPV (LPV/RTV 400/100 mg + 2INTI) twice daily in combination with rifabutin 150 mg thrice weekly and standard ethambutol–isoniazid–pyrazinamide. The second group (RBT 300 mg thrice weekly) consisted of seven patients treated with (LPV/RTV 400/100 mg + 2INTI) twice daily in combination with rifabutin 300 mg thrice weekly and standard ethambutol–isoniazid–pyrazinamide. […] Each patient took a daily dose of cotrimoxazole to prevent opportunistic infections associated with HIV.
# Pharmacokinetic monitoring was performed after 2 weeks of combined LPV/RTV and RBT treatment. On the day before pharmacokinetic monitoring, patients were admitted and fasted from midnight onwards. The pharmacokinetic assessment was conducted on a day when a dose of RBT was taken. The first measure of the pharmacokinetic monitoring (time zero) was performed on an empty stomach before taking the daily dose of RBT and LPV/RTV. After the first blood sampling, patients immediately (within 5 min) took their rifabutin and LPV/RTV regimen. Subsequent blood samples for pharmacokinetic monitoring were collected at 1, 2, 3, 4, 6, 8 and 12 h after combined drug ingestion. Breakfast (a sandwich and water) was served to the patients 2 h after drug ingestion.
# Two to three millilitres of blood was collected in a heparinized primary vial and centrifuged at 3000 rpm for 10 min within 1 h of collection. The plasma was stored at − 20 °C until transportation to the laboratory for the pharmacokinetic analysis.
# A high-performance liquid chromatography–mass spectrometry (HPLC/MS–MS) assay previously described by Moyer et al. was used to determine the LPV and RTV plasma concentrations at the Service of Clinical Pharmacology (IRCCS S Matteo, Pavia, Italy). The limit of quantification was 0.05 µg/mL for both drugs. The assay was validated in accordance with the European Medicines Agency (EMA) “Guidelines on bioanalytical method validation. The areas under the plasma concentration–time curve (AUC) were calculated by using the linear trapezoidal rule.
# Data were entered using EpiData (http://www.epidata.dk) and Excel and analysed with Stata, version 13 (https://www.stata.com, StataCorp LP; College Station, TX, USA). Descriptive statistics were used to describe the patient’s characteristics and to calculate the frequencies, proportions and medians with interquartile intervals. Statistical comparisons were made using Fisher’s exact test with 5% set as the significance level. For the LPV and RTV pharmacokinetic profile, we determined for each patient the Cmax (peak concentration measured (µg/mL)), the Ctrough (drug plasma concentration measured just prior to administration of the drug dose (µg/mL)), the Tmax (time for Cmax), the area under the curve during a dosing interval (AUC0–12 = plasma concentration * time (µg × h/mL) and the apparent clearance (CL/F, true clearance divided by the true absolute bioavailability).
# [1] = first group RBT 150 mg TPW, listed as RTV
# [2] = human, plasma, oral, LPV/RTV 400/100 mg twice daily with RBT 150 mg TPW (n = 9), median and IQR
# [3] = human, plasma, oral, LPV/RTV 400/100 mg twice daily with RBT 300 mg TPW (n = 7), median and IQR
# [4] = second group RBT 300 mg TPW, listed as RTV
compound,measurement,setting,value
"CC(C)c1nc(CN(C)C(=O)N[C@H](C(=O)N[C@@H](Cc2ccccc2)C[C@H](O)[C@H](Cc2ccccc2)NC(=O)OCc2cncs2)C(C)C)cs1 [Ritonavir, ritonavir]",concentration,"LPV/RTV 400/100 mg twice daily with RBT 150 mg TPW (arm A, n = 9), median and IQR, plasma",2100 ng/mL
same,concentration,"LPV/RTV 400/100 mg twice daily with RBT 300 mg TPW (arm B, n = 7), median and IQR, plasma",1600 ng/mL
same,"AUC0–12, individual patients",[1],10.8 µg·h/mL and 23.5 µg·h/mL and 14.8 µg·h/mL and 7.8 µg·h/mL and 8.9 µg·h/mL and 12.8 µg·h/mL and 12.2 µg·h/mL and 18.5 µg·h/mL
same,"Cl, individual patients",[1],0.17 L/h/kg and 0.08 L/h/kg and 0.11 L/h/kg and 0.25 L/h/kg and 0.19 L/h/kg and 0.18 L/h/kg and 0.15 L/h/kg
same,"Cmax, individual patients",[1],3.6 µg/mL and 2.9 µg/mL and 1.28 µg/mL and 1.86 µg/mL and 2.26 µg/mL and 2.74 µg/mL and 3.16 µg/mL
same,"Tmax, individual patients",first group RBT 150 mg TPW,3 h
same,"Tmax, individual patients",[1],1 h and 4 h and 6 h
same,Cmax,"human, plasma, oral, 150 mg, first group RBT 150 mg TPW, read-out: Cmax, individual patients",1910 ng/mL
same,AUC(0-t),[2],12700 ng·h/mL
same,concentration at 12 h,[2],1700 ng/mL
same,Cmax,"human, plasma, oral, LPV/RTV 400/100 mg twice daily with RBT 150 mg TPW (n = 9), median and IQR, read-out: Cmax",2700 ng/mL
same,Tmax,[3],2 h
same,AUC(0-t),[3],6600 ng·h/mL
same,concentration at 12 h,[3],600 ng/mL
same,CL/F,"human, plasma, oral, LPV/RTV 400/100 mg twice daily with RBT 300 mg TPW (n = 7), median and IQR, read-out: CL (apparent clearance, CL/F) (converted)",4.83 mL/min/kg
same,Cmax,"human, plasma, oral, LPV/RTV 400/100 mg twice daily with RBT 300 mg TPW (n = 7), median and IQR, read-out: Cmax",1500 ng/mL
same,"C1, individual patients",[1],1.91 µg/mL and 3.8 µg/mL and 3.1 µg/mL and 0.4 µg/mL and 1.86 µg/mL and 2 µg/mL
same,"C1, individual patients",[4],Low and 0.37 µg/mL and 1.97 µg/mL and 2.14 µg/mL and 1.64 µg/mL and 1.5 µg/mL
same,"C2, individual patients",[1],1.72 µg/mL and 3.6 µg/mL and 2.6 µg/mL and 1.7 µg/mL and 2.5 µg/mL and 2.24 µg/mL
same,"C2, individual patients",[4],1 µg/mL and 0.4 µg/mL and 0.8 µg/mL and 2.22 µg/mL and 2.43 µg/mL and 1.9 µg/mL and 1.12 µg/mL
same,"C3, individual patients",[1],1.65 µg/mL and 3.5 µg/mL and 2.9 µg/mL and 0.64 µg/mL and 0.4 µg/mL and 1.81 µg/mL
same,"C3, individual patients",[4],1.33 µg/mL and 0.3 µg/mL and 0.8 µg/mL and 1.41 µg/mL and 2.4 µg/mL and 1.9 µg/mL and 1.2 µg/mL
same,"C4, individual patients",[1],1.2 µg/mL and 2.7 µg/mL and 1.7 µg/mL and 1.28 µg/mL and 0.5 µg/mL and 2.26 µg/mL
same,"C4, individual patients",[4],1.44 µg/mL and 0.38 µg/mL and 0.9 µg/mL and 0.95 µg/mL and 1.67 µg/mL and 2 µg/mL and 1 µg/mL
same,"C6, individual patients",[1],1.64 µg/mL and 3.3 µg/mL and 1.5 µg/mL and 0.7 µg/mL and 1 µg/mL
same,"C6, individual patients",[4],1.22 µg/mL and 0.3 µg/mL and 0.8 µg/mL and 1.45 µg/mL and 1.3 µg/mL and 2.5 µg/mL and 0.5 µg/mL
same,"C8, individual patients",[1],1.24 µg/mL and 2.8 µg/mL and 1.2 µg/mL and 2.4 µg/mL and 1 µg/mL and 1.5 µg/mL
same,"C8, individual patients",[4],1.1 µg/mL and 0.28 µg/mL and 0.9 µg/mL and 0.66 µg/mL and 1 µg/mL and 2 µg/mL and 0.13 µg/mL
same,"C12, individual patients",[1],1.1 µg/mL and 3.6 µg/mL and 0.6 µg/mL and 0.2 µg/mL and 1.33 µg/mL and 1.7 µg/mL
same,"C12, individual patients",[4],0.62 µg/mL and low and 0.6 µg/mL and 0.53 µg/mL and 0.7 µg/mL and 1.86 µg/mL and Low
same,"C0, individual patients",[1],1.85 µg/mL and 4.11 µg/mL and 3.1 µg/mL and 1.2 µg/mL and 2.1 µg/mL and 1.43 µg/mL
same,"C0, individual patients",[4],below the limit of quantification and Low and 0.41 µg/mL and 0.2 µg/mL and 2.72 µg/mL and 1.84 µg/mL and 1.55 µg/mL and 2.3 µg/mL
same,"reduction of plasma concentrations, RBT 300 mg versus RBT 150 mg","patients receiving RBT 300 mg TPW compared to RBT 150 mg TPW, listed as RTV",nearly halved; also recorded: nearly half
same,"Cl, individual patients",[4],0.39 L/h/kg and 0.81 L/h/kg and 0.54 L/h/kg and 0.16 L/h/kg and 0.20 L/h/kg and 0.15 L/h/kg and 0.29 L/h/kg
same,"Tmax, individual patients",[4],4 h and 6 h and 1 h
